According to patent US20190367516A1 (Bayer Pharma Aktiengesellschaft, priority 2015, published 2019):
Read-outs that look alike come from different tables or passages of the source.

Biological target: T1, human M2 receptor (Homo sapiens, UniProt P08172)
T1 sequence (P08172 1-466): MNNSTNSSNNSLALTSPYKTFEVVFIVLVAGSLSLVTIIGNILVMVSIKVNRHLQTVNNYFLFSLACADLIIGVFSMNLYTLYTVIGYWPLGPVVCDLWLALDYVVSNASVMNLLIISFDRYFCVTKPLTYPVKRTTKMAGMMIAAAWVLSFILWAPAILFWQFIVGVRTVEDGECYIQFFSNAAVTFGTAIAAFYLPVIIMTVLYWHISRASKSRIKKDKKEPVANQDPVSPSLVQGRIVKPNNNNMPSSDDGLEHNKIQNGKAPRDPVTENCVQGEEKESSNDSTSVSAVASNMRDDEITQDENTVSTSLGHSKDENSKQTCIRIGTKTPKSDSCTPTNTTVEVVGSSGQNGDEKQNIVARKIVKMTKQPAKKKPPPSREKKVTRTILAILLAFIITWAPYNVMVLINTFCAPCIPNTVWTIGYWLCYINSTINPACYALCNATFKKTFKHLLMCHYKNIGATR
Conditions: for EC50: Receptor activity EC50, allosteric potency at EC20 acetylcholine, in some cases mean of two or more determinations

[1] = read-out: Efficiency, boosting of the acetylcholine effect at EC20 acetylcholine concentration, M2-GIRK1/4 reporter cells

| Structure (SMILES) | EC50 (M2-GIRK1/4 reporter cells) [nM] | Emax [1] [%] | Emax (read-out: Efficiency) [%] |
| --- | --- | --- | --- |
| CC1CN(c2ccc3c(=O)c(C(=O)N[C@@H](C4CC4)C(F)(F)F)cn(-c4c(F)cc(F)cc4F)c3n2)C(=O)O1 (mixture of isomers) [Example 436, N-[(1 S)-1-Cyclopropyl-2,2,2-trifluoroethyl]-7-[5-methyl-2-oxo-1,3-oxazolidin-3-yl]-4-oxo-1-(2,4,6-trifluorophenyl)-1,4-dihydro-1,8-naphthyridine-3-carboxamide] | 81 | 94 | – |
| CCC(COC(F)(F)F)NC(=O)c1cn(-c2c(F)cc(F)cc2F)c2nc(N3C[C@@H](C)NC3=O)ccc2c1=O (mixture of isomers) [Example 453, 7-[(4R)-4-Methyl-2-oxoimidazolidin-1-yl]-4-oxo-N-[(2S)-1-(trifluoromethoxy)butan-2-yl]-1-(2,4,6-trifluorophenyl)-1,4-dihydro-1,8-naphthyridine-3-carboxamide] | 11 | 98.5 | – |
| CC(NC(=O)c1cn(-c2c(F)cc(F)cc2F)c2nc(N3C[C@@H](C)NC3=O)ccc2c1=O)C(F)(F)C(F)(F)F (mixture of isomers) [Example 458, 7-[(4R)-4-Methyl-2-oxoimidazolidin-1-yl]-4-oxo-N-[3,3,4,4,4-pentafluorobutan-2-yl]-1-(2,4,6-trifluorophenyl)-1,4-dihydro-1,8-naphthyridine-3-carboxamide] | 3 | 100 | – |
| O=C(N[C@@H](C1CC1)C(F)(F)F)c1cn(-c2c(F)cc(F)cc2F)c2nc(N3CCOC(CO)C3)ccc2c1=O (mixture of isomers) [Example 463, N-[(1 S)-1-Cyclopropyl-2,2,2-trifluoroethyl]-7-[2-(hydroxymethyl)morpholin-4-yl]-4-oxo-1-(2,4,6-trifluorophenyl)-1,4-dihydro-1,8-naphthyridine-3-carboxamide] | 54 | 89 | – |
| CC(NC(=O)c1cn(-c2c(F)cc(F)cc2F)c2nc(N3C[C@@H](O)CC3=O)ccc2c1=O)C1CCC1 (mixture of isomers) [Example 471, N-[1-Cyclobutylethyl]-7-[(4S)-4-hydroxy-2-oxopyrrolidin-1-yl]-4-oxo-1-(2,4,6-trifluorophenyl)-1,4-dihydro-1,8-naphthyridine-3-carboxamide] | 10 | 89 | – |
| O=C(NC(C1CCC1)C(F)(F)F)c1cn(-c2c(F)cc(F)cc2F)c2nc(N3C[C@@H](O)CC3=O)ccc2c1=O (mixture of isomers) [Example 505, N-[1-Cyclobutyl-2,2,2-trifluoroethyl]-7-[(4S)-4-hydroxy-2-oxopyrrolidin-1-yl]-4-oxo-1-(2,4,6-trifluorophenyl)-1,4-dihydro-1,8-naphthyridine-3-carboxamide] | 6 | 100 | – |
| O=C(NC(CC(F)(F)F)C1CC1)c1cn(-c2c(F)cc(F)cc2F)c2nc(N3C[C@@H](O)CC3=O)ccc2c1=O (mixture of isomers) [Example 512, N-[1-Cyclopropyl-3,3,3-trifluoropropyl]-7-[(4S)-4-hydroxy-2-oxopyrrolidin-1-yl]-4-oxo-1-(2,4,6-trifluorophenyl)-1,4-dihydro-1,8-naphthyridine-3-carboxamide] | 10 | 100 | – |
| CCC(NC(=O)c1cn(-c2c(F)cc(F)cc2F)c2nc(N3C[C@@H](O)CC3=O)ccc2c1=O)C(F)(F)C(F)(F)F (mixture of isomers) [Example 519, 7-[(4S)-4-Hydroxy-2-oxopyrrolidin-1-yl]-4-oxo-N-[1,1,1,2,2-pentafluoropentan-3-yl]-1-(2,4,6-trifluorophenyl)-1,4-dihydro-1,8-naphthyridine-3-carboxamide] | 3 | 96.7 | – |
| CCC(NC(=O)c1cn(-c2c(F)cc(F)cc2F)c2nc(N3C[C@@H](O)[C@H](O)C3)ccc2c1=O)C(F)(F)C(F)(F)F (mixture of isomers) [Example 522, 7-[(3R,4R)-3,4-Dihydroxypyrrolidin-1-yl]-4-oxo-N-[1,1,1,2,2-pentauoropentan-3-yl]-1-(2,4,6-trifluorophenyl)-1,4-dihydro-1,8-naphthyridine-3-carboxamide] | – | – | 92.8 |
| CC(C)C(NC(=O)c1cn(-c2c(F)cc(F)cc2F)c2nc(N3C[C@@H](O)CC3=O)ccc2c1=O)C(F)(F)F (mixture of isomers) [Example 526, 7-[(4S)-4-Hydroxy-2-oxopyrrolidin-1-yl]-4-oxo-N-[1,1,1-trifluoro-3-methylbutan-2-yl]-1-(2,4,6-trifluorophenyl)-1,4-dihydro-1,8-naphthyridine-3-carboxamide] | 9 | 100 | – |
| CC(NC(=O)c1cn(-c2c(F)cc(F)cc2F)c2nc(N3C[C@@H](O)CC3=O)ccc2c1=O)C(F)(F)C(F)(F)F (mixture of isomers) [Example 529, 7-[(4S)-4-Hydroxy-2-oxopyrrolidin-1-yl]-4-oxo-N-[3,3,4,4,4-pentafluorobutan-2-yl]-1-(2,4,6-trifluorophenyl)-1,4-dihydro-1,8-naphthyridine-3-carboxamide] | 6 | 96 | – |
| O=C(NC(c1ccccc1Cl)C(F)(F)F)c1cn(-c2c(F)cc(F)cc2F)c2nc(N3C[C@@H](O)CC3=O)ccc2c1=O (mixture of isomers) [Example 532, N-[1-(2-Chlorophenyl)-2,2,2-trifluoroethyl]-7-[(4S)-4-hydroxy-2-oxopyrrolidin-1-yl]-4-oxo-1-(2,4,6-trifluorophenyl)-1,4-dihydro-1,8-naphthyridine-3-carboxamide] | 18 | 92 | – |

Second part, led by results:

| EC50 (M2-GIRK1/4 reporter cells) [nM] | Emax [1] [%] | Structure (SMILES) | Emax (read-out: Efficiency) [%] |
| --- | --- | --- | --- |
| 37 | 99.5 | O=C(NC(CC(F)(F)F)C1CC1)c1cn(-c2c(F)cc(F)cc2F)c2nc(N3C[C@@H](O)[C@H](O)C3)ccc2c1=O (mixture of isomers) [Example 438, N-[1-Cyclopropyl-3,3,3-trifluoropropyl]-7-[(3R,4R)-3,4-dihydroxypyrrolidin-1-yl]-4-oxo-1-(2,4,6-trifluorophenyl)-1,4-dihydro-1,8-naphthyridine-3-carboxamide] | – |
| 15 | 100 | CC(NC(=O)c1cn(-c2c(F)cc(F)cc2F)c2nc(N3C[C@@H](O)[C@H](O)C3)ccc2c1=O)(C1CC1)C(F)(F)F (mixture of isomers) [Example 441, N-[2-Cyclopropyl-1,1,1-trifluoropropan-2-yl]-7-[(3R,4R)-3,4-dihydroxypyrrolidin-1-yl]-4-oxo-1-(2,4,6-trifluorophenyl)-1,4-dihydro-1,8-naphthyridine-3-carboxamide] | – |
| 18 | 98 | CC(NC(=O)c1cn(-c2c(F)cc(F)cc2F)c2nc(N3C[C@@H](O)[C@H](O)C3)ccc2c1=O)C1CCC1 (mixture of isomers) [Example 476, N-[1-Cyclobutylethyl]-7-[(3R,4R)-3,4-dihydroxypyrrolidin-1-yl]-4-oxo-1-(2,4,6-trifluorophenyl)-1,4-dihydro-1,8-naphthyridine-3-carboxamide] | – |
| 12 | 96.5 | CCC(NC(=O)c1cn(-c2c(F)cc(F)cc2F)c2nc(N3C[C@@H](O)[C@H](O)C3)ccc2c1=O)C(C)C (mixture of isomers) [Example 487, 7-[(3R,4R)-3,4-Dihydroxypyrrolidin-1-yl]-N-[2-methylpentan-3-yl]-4-oxo-1-(2,4,6-trifluorophenyl)-1,4-dihydro-1,8-naphthyridine-3-carboxamide] | – |
| 7 | 93.5 | CC(NC(=O)c1cn(-c2c(F)cc(F)cc2F)c2nc(N3C[C@@H](O)CC3=O)ccc2c1=O)(C1CC1)C(F)(F)F (mixture of isomers) [Example 508, N-[2-Cyclopropyl-1,1,1-trifluoropropan-2-yl]-7-[(4S)-4-hydroxy-2-oxopyrrolidin-1-yl]-4-oxo-1-(2,4,6-trifluorophenyl)-1,4-dihydro-1,8-naphthyridine-3-carboxamide] | – |
